Test results reported in US6703212B1, “Methods and kits for diagnosing Alzheimer's disease from a blood sample” (priority 1997, dated 2004).

System: PKC
Experiment: Fluorescence properties of fim-1 with liposomes, purified PKC and erythrocytes
Assay type: biochemical
Conditions: fim-1 500 nM, Ex 485 nm
Method: Liposomes prepared from lipidic extracts of brain and a commercial preparation of purified a PKC are used, then erythrocytes are added.
This preparation is incubated for 20 minutes at ambient temperature, in the presence of fim-1 (500 nM) in a PBS buffer (150 mM NaCl, 10 mM NaHPO4, 5 mM D-glucose, 500 μm CaCl2, pH 7.4.
After washing, centrifugation and resuspension in PBS 1/150, the fluorescence emission spectrum is recorded between […], with an excitation wavelength of 485 nm.
The spectrum obtained is standardized relative to the fluorescence intensity measured with the probe alone, then broken down into the 3 elementary gaussian distributions represented in FIG. 1. An emission maximum is noted at 518, 535 and 586 nm respectively. The interactions between fim-1 and the membrane lipids as well as the PKC is expressed by a slight shift of the spectrum between […] for the lipids and an increase in fluorescence between 510 and 530 nm, and beyond 570 nm for the PKC.

| Structure (SMILES) | increase of quantal yield of fim-1 fluorescence (factor) (in the presence of activator) | effect on fluorescence intensity of fim-1 (addition of inhibitor) |
| --- | --- | --- |
| CCCCCCCCCCCCCC(=O)O[C@@H]1[C@@H](C)[C@@]2(O)[C@@H](C=C(CO)C[C@]3(O)C(=O)C(C)=C[C@@H]23)[C@@H]2C(C)(C)[C@]12OC(C)=O [phorbol ester, phorbol myristate acetate] | 5000 |  |
| CN[C@@H]1C[C@H]2O[C@@](C)([C@@H]1OC)n1c3ccccc3c3c4c(c5c6ccccc6n2c5c31)C(=O)NC4 [staurosporine] |  | inhibition in the fluorescence intensity |
